From patent US5300639A, “Thiazolo [5,4-b]azepine compounds” (Takeda Chemical Industries, Ltd., priority 1992, dated 1994)
Structures can show the parent of a compound that is named as a salt.

What was measured:
[1] = system: Behavior change due to the spinal intrathecal injection of ferrous chloride in mice; experiment: Behavior change due to spinal intrathecal injection of ferrous chloride in mice; type: in vivo, Slc:ICR mouse; conditions: 100 mg/kg p.o., 30 min before i.t. ferrous chloride; for Average score, 100 mg/kg dose: scale 0 (normal) to 5 (death); for Inhibition rate (%): vs saline
Procedure: In male Slc : ICR mouse of 5 weeks age 10 mice per group were used. […] The evaluation point of behavior change was scored according to the following criterion.
The inhibition rate was shown based on the evaluation point under the above criterion. The test compound was orally administered 30 minutes before the i.t. injection of ferrous chloride.

5-lipoxygenase = molecular target: T1, 5-lipoxygenase (Rattus norvegicus, UniProt P12527); experiment: Inhibitory action on 5-lipoxygenase (5-HETE formation in RBL-1 cells); type: cell-based; conditions: read-out: Inhibition rate (%) of 5-HETE formation; for inhibition at 1 µM: 10^-6 M; for inhibition at 0.1 µM: 10^-7 M; for inhibition at 0.01 µM: 10^-8 M
T1 construct: endogenous in cells; host or cells: RBL-1 (rat basophilic leukemia cells)
T1 sequence (P12527 1-673): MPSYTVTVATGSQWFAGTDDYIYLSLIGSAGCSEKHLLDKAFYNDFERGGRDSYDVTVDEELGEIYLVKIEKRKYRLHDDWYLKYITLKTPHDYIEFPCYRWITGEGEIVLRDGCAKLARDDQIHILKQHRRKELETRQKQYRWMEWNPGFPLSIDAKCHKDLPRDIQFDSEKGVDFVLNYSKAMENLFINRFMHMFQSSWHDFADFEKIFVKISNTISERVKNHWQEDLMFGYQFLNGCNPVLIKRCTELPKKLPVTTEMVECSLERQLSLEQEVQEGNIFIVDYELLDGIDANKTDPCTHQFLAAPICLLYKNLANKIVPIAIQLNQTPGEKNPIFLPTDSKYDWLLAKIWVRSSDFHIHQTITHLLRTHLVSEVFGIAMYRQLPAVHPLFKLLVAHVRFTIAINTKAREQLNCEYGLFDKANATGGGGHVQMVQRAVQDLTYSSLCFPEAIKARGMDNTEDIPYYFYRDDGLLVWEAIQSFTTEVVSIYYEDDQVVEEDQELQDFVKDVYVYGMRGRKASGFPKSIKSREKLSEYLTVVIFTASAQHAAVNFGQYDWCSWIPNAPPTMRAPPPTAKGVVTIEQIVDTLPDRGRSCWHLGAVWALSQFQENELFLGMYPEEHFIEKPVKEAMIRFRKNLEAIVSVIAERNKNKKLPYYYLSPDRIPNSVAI
Procedure: RBL-1 cells (rat basophilic leukemia cells) of 10^7 were suspended in 0.9 ml of MCM (mast cell medium). […] The mixture was incubated at 37° C. for 5 minutes. Then, 0.1 ml of MCM containing 50 μg of arachidonic acid and 10 μg of calcium ionophore A-23187 was added and further the mixture was incubated at 37° C. for 15 minutes. After the reaction, 1 ml of ethanol was added, well shaken and subjected to high performance liquid chromatography to determine 5-HETE. The absorption at 240 nm due to 5-HETE was measured by an ultraviolet abosorption monitor. The inhibition rate of 5-HETE formation is represented by (1-b/a)×100, wherein a is the peak height or area in the absence of the compound (I) and b is that in the presence of the compound (I).

[2] = system: formation of HHT (12-hydroxyheptadeca-5,8,10-trienoic acid) in rat's platelet; experiment: Inhibitory action for the formation of HHT in rat's platelet; type: cell-based; conditions: rat platelet rich plasma, read-out: Inhibition rate (%) of HHT formation; for inhibition at 100 µM: 10^-4 M; for inhibition at 10 µM: 10^-5 M; for inhibition at 1 µM: 10^-6 M
Procedure: Eight ml of blood was gathered from the abdominal aorta of a rat (JcI : Wistar, male, 12-15 weeks age) subjected to abdominal incision under anesthesia by the use of 3.2 % sodium citrate (1 volume of sodium citrate solution to 9 volume of whole blood). The blood was centrifuged at 800 rpm for 10 minutes at room temperature to gather PRP (platelet rich plasma), and the residual blood was further centrifuged at 3000 rpm for 10 minutes to gather PPP (platelet poor plasma). The platelet number in PRP was measured and the PRP was adjusted by diluting with PPP so that the concentration of platelet was one million/μl. To 0.25 ml of the PRP, 125 μg of arachidonic acid and the test compound (the final concentration of 100 μM, 10 μM, 1 μM and 0.1 μM) were added, and the mixture was incubated at 37° C. for 15 minutes. After the reaction, 1.1 ml of ethanol was added, well shaken and centrifuged at 2000 rpm for 10 minutes to separate the supernatant. To 1 ml of the supernatant 1 ml of water was added and subjected to high performance liquid chromatography to determine HHT. The absorption at 240 nm due to HHT was measured by an ultraviolet absorption monitor. […]

[3] = molecular target: T2, Leukotriene D4 (LTD4) receptor (Cavia porcellus, UniProt Q2NNR5); experiment: Leukotriene D4 (LTD4) receptor antagonism ([3H]LTD4, guinea pigs' lung membrane fraction); type: binding, guinea pig; conditions: read-out: Inhibition rate (%) LTD4 receptor; for inhibition at 1 µM: 10^-6 M; for inhibition at 0.1 µM: 10^-7 M; for inhibition at 0.01 µM: 10^-8 M
T2 construct: guinea pigs' lung membrane fraction; from tissue; host or cells: guinea pig lung membrane fraction
T2 sequence (Q2NNR5 1-340): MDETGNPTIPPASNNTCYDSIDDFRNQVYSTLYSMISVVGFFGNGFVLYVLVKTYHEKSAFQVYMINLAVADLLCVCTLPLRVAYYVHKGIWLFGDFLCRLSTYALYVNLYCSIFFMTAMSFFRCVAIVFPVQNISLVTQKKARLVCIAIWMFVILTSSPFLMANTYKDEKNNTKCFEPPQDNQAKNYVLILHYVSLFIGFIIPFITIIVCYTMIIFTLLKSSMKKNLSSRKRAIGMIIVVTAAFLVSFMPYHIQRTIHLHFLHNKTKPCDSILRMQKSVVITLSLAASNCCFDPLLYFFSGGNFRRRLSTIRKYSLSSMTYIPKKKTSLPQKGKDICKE
Procedure: According to the method by S. S. Pong , and R. N. DeHaven (Proceedings of the National Academy of Sciences of the United States of America, 80, 7415-7419 (1983) , the leukotriene D4 (LTD4) receptor antagonism was measured by using [^3 H]LTD4 and guinea pigs' lung membrane fraction. The results are shown in Table 5.

[4] = system: lipoperoxide formation in rat's brain homogenate; experiment: Inhibitory action for lipoperoxide formation in rat's brain homogenate (thiobarbituric acid method); type: biochemical; conditions: read-out: IC50 (M) × 10^-7
Procedure: According to the method by Suno et al. (Japan J. Pharmacol., 35, 196(1984) , the concentration of the compound necessary for 50% inhibition of lipoperoxide formation in rat's brain homogenate was determined by examining the lipoperoxide formation using the thiobarbituric acid method. The results obtained are shown in Table 3.

inhibition at 1 µM (5-lipoxygenase) [%] | inhibition at 0.1 µM (5-lipoxygenase) [%] | inhibition at 0.01 µM (5-lipoxygenase) [%] | IC50 [4] [M] | SMILES | inhibition at 100 µM [2] [%] | inhibition at 10 µM [2] [%] | inhibition at 1 µM [2] [%] | other results
100 | 56 | 14 |  | COc1ccc(C=Cc2nc3c(s2)NCCCC3)cc1 [Example 2, 2-(4-Methoxystyryl)-5,6,7,8-tetrahydro-4H-thiazolo[5,4-b]azepine] | 100 | 58 | 16 | Average score, 100 mg/kg dose [1]: 1.2; Inhibition rate (%) [1]: 74.5%
 |  |  |  | C(=Cc1nc2c(s1)NCCCC2)c1ccccc1 [Example 3, 2-Styryl-5,6,7,8-tetrahydro-4H-thiazolo[5,4-b]azepine] | 100 | 83 | 22 | 
 |  |  |  | COc1ccc(-c2nc3c(s2)NCCCC3)cc1 [Example 5, 2-(4-Methoxyphenyl)-5,6,7,8-tetrahydro-4H-thiazolo[5,4-b]azepine hydrochloride] |  |  |  | Average score, 100 mg/kg dose [1]: 0.9; Inhibition rate (%) [1]: 82.0%
 |  |  | 7e-07 | Cc1ccc(C=Cc2nc3c(s2)NCCCC3)cc1 [Example 6, 2-(4-Methylstyryl)-5,6,7,8-tetrahydro-4H-thiazolo[5,4-b]-azepine] |  |  |  | inhibition at 1 µM [3]: 100%; inhibition at 0.1 µM [3]: 94.3%; inhibition at 0.01 µM [3]: 64.4%
 |  |  | 8e-07 | CCOc1ccc(C=Cc2nc3c(s2)NCCCC3)cc1 [Example 7, 2-(4-Ethoxystyryl)-5,6,7,8-tetrahydro-4H-thiazolo[5,4-b]azepine] |  |  |  | 
 |  |  | 7e-07 | CC(C)c1ccc(C=Cc2nc3c(s2)NCCCC3)cc1 [Example 8, 2-(4-Isopropylstyryl)-5,6,7,8-tetrahydro-4H-thiazolo[5,4-b]azepine] |  |  |  | inhibition at 1 µM [3]: 94.6%; inhibition at 0.1 µM [3]: 92.4%; inhibition at 0.01 µM [3]: 54.8%
100 | 79 | 12 | 7e-07 | COc1ccc(C=CC=Cc2nc3c(s2)NCCCC3)cc1 [Example 9, 2-[4-(4-Methoxyphenyl)butadienyl]-5,6,7,8-tetrahydro-4H-thiazolo [5,4-b]azepine] |  |  |  | 
 |  |  | 6e-07 | COc1ccccc1C=Cc1nc2c(s1)NCCCC2 [Example 12, 2-(2-Methoxystyryl)-5,6,7,8-tetrahydro-4H-thiazolo [5,4-b)azepine oxalate] |  |  |  | 
 |  |  |  | C(=Cc1nc2c(s1)NCCCC2)c1ccc2c(c1)OCO2 [Example 13, 2-(3,4-Methylenedioxystyryl)-5,6,7,8-tetrahydro-4H-thiazolo[5,4-b]azepine hydrochloride] |  |  |  | inhibition at 1 µM [3]: 100%; inhibition at 0.1 µM [3]: 92.5%; inhibition at 0.01 µM [3]: 61%
 |  |  |  | COc1ccc(C=Cc2nc3c(s2)NCCCC3)cc1OC.Cl [Example 16, 2-(3,4-Dimethoxystyryl)-5,6,7,8-tetrahydro-4H-thiazolo[5,4-b]azepine hydrochloride] |  |  |  | Average score, 100 mg/kg dose [1]: 0.3; Inhibition rate (%) [1]: 94.0%
100 | 44 | 2 |  | Clc1ccc(C=Cc2nc3c(s2)NCCCC3)cc1Cl [Example 20, 2-(3,4-Dichlorostyryl)-5,6,7,8-tetrahydro-4H-thiazolo[5,4-b]azepine] | 96 | 43 | 18 | 
 |  |  | 7e-07 | C(C=Cc1nc2c(s1)NCCCC2)=Cc1ccccc1 [Example 21, 2-(4-Phenylbutadienyl)-5,6,7,8-tetrahydro-4H-thiazolo[5,4-b]azepine] |  |  |  | Average score, 100 mg/kg dose [1]: 1.7; Inhibition rate (%) [1]: 63.0%
100 | 49 | 4 |  | O=[N+]([O-])c1ccc(C=Cc2nc3c(s2)NCCCC3)cc1 [Example 22, 2-(4-Nitrostyryl)-5,6,7,8-tetrahydro-4H-thiazolo-[5,4-b]azepine] |  |  |  | 
 |  |  | 1.2e-06 | Fc1ccccc1-c1nc2c(s1)NCCCC2 [Example 23, 2-(2-Fluorophenyl)-5,6,7,8-tetrahydro-4H-thiazolo [5,4-b]azepine] |  |  |  | 
93 | 53 | 26 |  | O=[N+]([O-])c1ccc(-c2nc3c(s2)NCCCC3)cc1 [Example 24, 2-(4-Nitrophenyl)-5,6,7,8-tetrahydro-4H-thiazolo[5,4-b]azepine] |  |  |  | 
 |  |  | 1.2e-06 | c1ccc(-c2nc3c(s2)NCCCC3)cc1 [Example 26, 2-Phenyl-5,6,7,8-tetrahydro-4H-thiazolo[5,4-b]azepine] | 100 | 63 | 22 | 
95 | 56 | 9 | 7e-07 | C(=Cc1nc2c(s1)NCCCC2)c1ccccc1.O=C(O)C(=O)O [Example 28, 2-Styryl-5,6,7,8-tetrahydro-4H-thiazolo[5,4-b]azepine oxalate] |  |  |  | Average score, 100 mg/kg dose [1]: 1.1; Inhibition rate (%) [1]: 76.6%
 |  |  |  | c1ccc2cc(-c3nc4c(s3)NCCCC4)ccc2c1 [Example 30, 2-(2-Naphthyl)-5,6,7,8-tetrahydro-4H-thiazolo [5,4-b]azepine] |  |  |  | inhibition at 1 µM [3]: 100%; inhibition at 0.1 µM [3]: 98.8%; inhibition at 0.01 µM [3]: 76%
 |  |  |  | c1csc(-c2nc3c(s2)NCCCC3)c1 [Example 31, 2-(2-Thienyl)-5,6,7,8-tetrahydro-4H-thiazolo[5,4-b]azepine] | 100 | 80 | 19 | 
 |  |  |  | CS(=O)(=O)N1CCCCc2nc(-c3ccncc3)sc21 [Example 41, 4-Methanesulfonyl-2-(4-pyridyl)-5,6,7,8-tetrahydro-4H-thiazolo[5,4-b]azepin] | 87 | 63 | 23 | 
